In ChEMBL document CHEMBL4613209, “Quinolone hybrids and their anti-cancer activities: An overview” (Eur J Med Chem, 2019):
In brackets after ≈: the same amount, converted by molar mass. Values belong to the compound of their own block, whether it stands above or below them.

What was measured:
[1] = tested on: NCI-H460; assay: Growth inhibition of human NCI-H460 cells; type: functional; conditions: pooled result: one value given for 3 cell lines, strains, targets or settings
[2] = tested on: MCF7; assay: Cytotoxicity against human MCF7 cells assessed as reduction in cell viability after 72 hrs by MTT assay; type: functional, cell-based; conditions: MCF7, 72 h
[3] = tested on: ACHN; assay: Cytotoxicity against human ACHN cells assessed as reduction in cell viability after 72 hrs by MTT assay; type: functional, cell-based
[4] = tested on: A 172; assay: Cytotoxicity against human A172 cells assessed as reduction in cell viability after 72 hrs by MTT assay; type: functional, cell-based; conditions: A 172, 72 h
[5] = tested on: SK-MEL3; assay: Cytotoxicity against human SK-MEL-3 cells assessed as reduction in cell viability after 72 hrs by MTT assay; type: functional, cell-based; conditions: SK-MEL3, 72 h
[6] = tested on: KB; assay: Cytotoxicity against human KB cells assessed as reduction in cell viability after 72 hrs by MTT assay; type: functional, cell-based
[7] = tested on: A549; assay: Cytotoxicity against human A549 cells assessed as reduction in cell viability after 72 hrs by MTT assay; type: functional, cell-based; conditions: A549, 72 h
[8] = tested on: A2780; assay: Cytotoxicity against human A2780 cells assessed as reduction in cell viability after 72 hrs by MTT assay; type: functional, cell-based; conditions: A2780, 72 h
[9] = tested on: A549; assay: Cytotoxicity against human A549 cells assessed as reduction in cell viability; type: functional, cell-based
[10] = tested on: HT-29; assay: Cytotoxicity against human HT-29 cells assessed as reduction in cell viability; type: functional, cell-based
[11] = tested on: P388; assay: Cytotoxicity against mouse P388 cells assessed as reduction in cell viability; type: functional, cell-based
[12] = tested on: P388; assay: Cytotoxicity against doxorubicin resistant mouse P388 cells assessed as reduction in cell viability; type: functional, cell-based
[13] = tested on: B16-F10; assay: Cytotoxicity against mouse B16F10 cells assessed as reduction in cell viability; type: functional, cell-based
[14] = tested on: A549; assay: Anticancer activity against human A549 cells; type: functional, cell-based
[15] = tested on: HT-29; assay: Anticancer activity against human HT-29 cells; type: functional, cell-based
[16] = tested on: HCT-8; assay: Anticancer activity against human HCT8 cells; type: functional, cell-based
[17] = tested on: MCF7; assay: Anticancer activity against human MCF7 cells; type: functional, cell-based
[18] = tested on: B16-F10; assay: Anticancer activity against mouse B16F10 cells; type: functional, cell-based
[19] = tested on: Lewis lung carcinoma cell line; assay: Anticancer activity against mouse LLC cells; type: functional, cell-based
[20] = tested on: P388; assay: Anticancer activity against mouse P388 cells; type: functional, cell-based
[21] = tested on: P388; assay: Anticancer activity against doxorubicin resistant mouse P388 cells; type: functional, cell-based
[22] = tested on: SiHa; assay: Growth inhibition of human SiHa cells after 48 hrs by SRB assay; type: functional
[23] = tested on: MDA-MB-231; assay: Growth inhibition of human MDA-MB-231 cells after 48 hrs by SRB assay; type: functional; conditions: MDA-MB-231, 48 h
[24] = tested on: HepG2; assay: Anticancer activity against human HepG2 cells by MTT assay; type: functional, cell-based
[25] = tested on: HT-29; assay: Anticancer activity against human HT-29 cells by MTT assay; type: functional, cell-based
[26] = tested on: HL-60; assay: Anticancer activity against human HL60 cells by MTT assay; type: functional, cell-based

GI50 [1]: 19 µM
SMILES: O=c1[nH]c2ccc(Cl)cc2c2[nH]c3ccccc3c12

GI50 [1]: 10.7 to 53.7 µM
SMILES: O=c1[nH]c2ccc(F)cc2c2oc3ccccc3c12

SMILES: CCn1cc(C(=O)O)c(=O)c2cc(F)c(N3CCN(C/C(=N/OCc4ccccc4)c4ccco4)CC3)cc21
IC50 [2]: ≤ 10 µM | IC50 [3]: ≤ 10 µM | IC50 [4]: ≤ 10 µM | IC50 [5]: ≤ 10 µM | IC50 [6]: ≤ 10 µM | IC50 [7]: ≤ 10 µM | IC50 [8]: ≤ 10 µM

IC50 [14]: 0.03 to 0.49 µM | IC50 [15]: 0.03 to 0.49 µM | IC50 [16]: 0.03 to 0.49 µM | IC50 [17]: 0.03 to 0.49 µM | IC50 [18]: 0.03 to 0.49 µM | IC50 [19]: 0.03 to 0.49 µM | IC50 [20]: 0.03 to 0.49 µM | IC50 [21]: 0.03 to 0.49 µM
SMILES: O=C(O)c1cn2c3c(c1=O)C=C(F)C(N1CCC(Nc4ccccc4)C1)C3Oc1ccccc1-2 (stereo not given)
IC50 [9]: 0.011 to 0.59 µg/mL (≈ 0.0239 to 1.28 µM) | IC50 [10]: 0.011 to 0.59 µg/mL (≈ 0.0239 to 1.28 µM) | IC50 [11]: 0.011 to 0.59 µg/mL (≈ 0.0239 to 1.28 µM) | IC50 [12]: 0.011 to 0.59 µg/mL (≈ 0.0239 to 1.28 µM) | IC50 [13]: 0.011 to 0.59 µg/mL (≈ 0.0239 to 1.28 µM)

GI50 [1]: 10.7 to 53.7 µM
SMILES: COc1ccc2[nH]c(=O)c3c4ccccc4oc3c2c1

GI50 [23]: ≤ 0.1 µM
SMILES: CCn1cc(C(=O)O)c(=O)c2cnc(N3CCN(C(=O)CCSc4nnnn4Cc4ccccc4)CC3)nc21
GI50 [22]: ≤ 0.1 µM

SMILES: O=C(O)c1cn(C2CC2)c2cc(N3CCN(C/C(=N/OCc4ccc(Cl)cc4)c4ccco4)CC3)c(F)cc2c1=O
IC50 [2]: ≤ 10 µM | IC50 [3]: ≤ 10 µM | IC50 [4]: ≤ 10 µM | IC50 [5]: ≤ 10 µM | IC50 [6]: ≤ 10 µM | IC50 [7]: ≤ 10 µM | IC50 [8]: ≤ 10 µM

IC50 [24]: 13.1 to 88.4 µM | IC50 [25]: 13.1 to 88.4 µM | IC50 [26]: 13.1 to 88.4 µM
SMILES: CCOC(=O)c1cn(Cc2cn(-c3ccc([N+](=O)[O-])cc3)nn2)c2ccc(Cl)cc2c1=O

IC50 [24]: 13.1 to 88.4 µM | IC50 [25]: 13.1 to 88.4 µM | IC50 [26]: 13.1 to 88.4 µM
SMILES: CCOC(=O)c1cn(Cc2cn(-c3ccc(C)cc3)nn2)c2ccc(F)cc2c1=O

IC50 [24]: 13.1 to 88.4 µM | IC50 [25]: 13.1 to 88.4 µM | IC50 [26]: 13.1 to 88.4 µM
SMILES: CCOC(=O)c1cn(Cc2cn(-c3ccc(Cl)cc3)nn2)c2ccc(Cl)cc2c1=O

SMILES: CCn1cc(C(=O)O)c(=O)c2cc(F)c(N3CCN(C/C(=N/O)c4ccco4)CC3)cc21
IC50 [2]: > 100 µM | IC50 [3]: > 100 µM | IC50 [4]: > 100 µM | IC50 [5]: > 100 µM | IC50 [6]: > 100 µM | IC50 [7]: > 100 µM | IC50 [8]: > 100 µM

GI50 [23]: ≤ 0.1 µM
SMILES: CCn1cc(C(=O)O)c(=O)c2cnc(N3CCN(C(=O)CCSc4nnnn4-c4ccc(F)c(F)c4F)CC3)nc21
GI50 [22]: ≤ 0.1 µM

IC50 [24]: 13.1 to 88.4 µM | IC50 [25]: 13.1 to 88.4 µM | IC50 [26]: 13.1 to 88.4 µM
SMILES: CCOC(=O)c1cn(Cc2cn(-c3ccc(C)cc3)nn2)c2ccc(Cl)cc2c1=O

IC50 [14]: 0.03 to 0.49 µM | IC50 [15]: 0.03 to 0.49 µM | IC50 [16]: 0.03 to 0.49 µM | IC50 [17]: 0.03 to 0.49 µM | IC50 [18]: 0.03 to 0.49 µM | IC50 [19]: 0.03 to 0.49 µM | IC50 [20]: 0.03 to 0.49 µM | IC50 [21]: 0.03 to 0.49 µM
SMILES: NC1CCN(C2C(F)=Cc3c4n(cc(C(=O)O)c3=O)-c3ccccc3OC42)C1 (stereo not given)
IC50 [9]: 0.011 to 0.59 µg/mL (≈ 0.0287 to 1.54 µM) | IC50 [10]: 0.011 to 0.59 µg/mL (≈ 0.0287 to 1.54 µM) | IC50 [11]: 0.011 to 0.59 µg/mL (≈ 0.0287 to 1.54 µM) | IC50 [12]: 0.011 to 0.59 µg/mL (≈ 0.0287 to 1.54 µM) | IC50 [13]: 0.011 to 0.59 µg/mL (≈ 0.0287 to 1.54 µM)

IC50 [14]: 0.03 to 0.49 µM | IC50 [15]: 0.03 to 0.49 µM | IC50 [16]: 0.03 to 0.49 µM | IC50 [17]: 0.03 to 0.49 µM | IC50 [18]: 0.03 to 0.49 µM | IC50 [19]: 0.03 to 0.49 µM | IC50 [20]: 0.03 to 0.49 µM | IC50 [21]: 0.03 to 0.49 µM
SMILES: Cc1cccc(C)c1NC1CCN(C2C(F)=Cc3c4n(cc(C(=O)O)c3=O)-c3ccccc3OC42)C1 (stereo not given)
IC50 [9]: 0.011 to 0.59 µg/mL (≈ 0.0226 to 1.21 µM) | IC50 [10]: 0.011 to 0.59 µg/mL (≈ 0.0226 to 1.21 µM) | IC50 [11]: 0.011 to 0.59 µg/mL (≈ 0.0226 to 1.21 µM) | IC50 [12]: 0.011 to 0.59 µg/mL (≈ 0.0226 to 1.21 µM) | IC50 [13]: 0.011 to 0.59 µg/mL (≈ 0.0226 to 1.21 µM)

GI50 [1]: 27.5 µM
SMILES: O=c1[nH]c2ccccc2c2[nH]c(-c3ccccc3)c(-c3ccccc3)c12
